Source: the NIST ThermoML archive (doi:10.1016/j.jct.2012.05.008)

Experiment: xn = mol fraction of the nth substance listed
Conditions: Liquid, Vibrating tube method, x2 = 0.3333

NC(N)=O [urea] + C[N+](C)(C)CCO.[Cl-]
mass density [kg/m3]
Conditions	298.15 K	303.15 K	308.15 K	313.15 K	318.15 K	323.15 K
100 kPa	1197.9	1195.1	1192.2	1189.3	1186.4	1183.5
5000 kPa	1199.3	1196.4	1193.6	1190.7	1187.8	1184.9
10000 kPa	1200.6	1197.9	1194.9	1192	1189.2	1186.3
15000 kPa	1201.9	1199.1	1196.3	1193.4	1190.5	1187.6
20000 kPa	1203.3	1200.4	1197.6	1194.7	1191.9	1189
25000 kPa	1204.6	1201.8	1198.9	1196.1	1193.2	1190.4
30000 kPa	1205.9	1203.1	1200.3	1197.4	1194.6	1191.6
35000 kPa	1207.1	1204.4	1201.5	1198.7	1195.8	1193
40000 kPa	1208.3	1205.6	1202.8	1200	1197.1	1194.2
45000 kPa	1209.5	1206.8	1204	1201.2	1198.3	1195.5
50000 kPa	1210.7	1208	1205.1	1202.3	1199.5	1196.7
